Two molecules from paper PMC6749524, “Identification of New Antifungal Agents Targeting Chitin Synthesis by a Chemical-Genetic Method” (Molecules, 2019) can be followed below.

Assay [1] has as its system chitin level in C. albicans. Kind of assay: CFW staining of chitin, fluorescence microscopy. Format: cell-based, Candida albicans. As to conditions: IMB-D10 12.5 μg/mL or IMB-F4 25 μg/mL, 5 hours. As for the experimental part:
WT S. cerevisiae and C. albicans ATCC10231 were grown to 10^5 CFU/mL in YPD medium and then treated with IMB-D10 (12.5 or 25 μg/mL), IMB-F4 (12.5 or 25 μg/mL), or 0.25% DMSO for 3 and 5 hours at 30 ℃. Cells were collected by centrifugation at 1500 g for 5 min and resuspended in PBS. Some cells were examined using 100 × / 1.25 oil immersion objective (DM2500, Leica) and analyzed by Leica las. Some cells were stained with 100 μg/mL Calcofluor White M2R (CFW, Sigma-Aldrich, St. Louis, MO, USA for 3 min and washed three times with water. Then, the cells were examined under the UV light for fluorescent signals.

Assay [2] deals with C. albicans. Kind of assay: Growth curve assay (OD600 over time). Format: cell-based, Candida albicans. As to conditions: 50 μg/mL and 100 μg/mL, p < 0.05. As for the experimental part: (§1) Fresh cell cultures of WT yeast S. cerevisiae and Candida albicans ATCC10231 (OD600 = 0.8) were diluted in YPD medium (OD600 = 0.05). Then, IMB-D10 and IMB-F4 were added at concentrations ranging from 12.5 to 100 μg/mL. The cells were collected at different time points, and OD600 was measured with Multi-label Reader. Three experiments were performed independently, and the mean ± SD was calculated.

The subject of assay [3] is chs3∆ (chs3::KanMX in BY4741). Kind of assay: MIC in compound library screening assay, chs3∆ yeast. Format: cell-based, S. cerevisiae. As for the experimental part:
(§2) The compound library is a combination of synthetic compounds from Enamine (Kyiv, Ukraine) and Life Chemicals Inc. (Burlington, ON, Canada) and natural products from the Institute of Medicinal Biotechnology. We used WT, chs3∆, and fks1∆ yeast strains to screen new antifungal agents. The screening assays were performed in 96-well plates in a final volume of 200 μL. Fresh yeast cells (OD600 = 0.8) were diluted to 10^5 CFU/mL in YPD medium. We added 198 μL of diluted culture and 2 μL of compounds into each well, and the final concentration of compounds was 100 μg/mL with 1% DMSO. The yeast cells were incubated at 30 °C for 24 hours to assess the growth. For the compounds that inhibited the growth of all three yeast strains, they were serially diluted to determine the minimal inhibit concentration (MIC) with the same method. MIC endpoints were defined as the lowest concentration of drugs that cause a 90% decrease in growth compared to the drug-free control (MIC90).

Assay [4] deals with fks1∆ (fks1::KanMX in BY4741). The assay is described as follows: MIC in compound library screening assay, fks1∆ yeast. Format: cell-based, S. cerevisiae. As for the experimental part: as §2
The test system of assay [5] is chitin content in WT yeast cells. The assay is described as follows: Chitin content assay (Morgan–Elson method). Type of assay: cell-based, S. cerevisiae. As to conditions: 16 hours at 30 °C. As for the experimental part: The chitin content was assessed by measuring the level of D-glucosamine according to the method described by Morgan–Elson. WT yeast cells were grown to 10^5 CFU/ml in YPD medium and then treated with IMB-D10 (12.5 μg/mL), IMB-F4 (25 μg/mL), or DMSO (0.25%) for 16 hours at 30 °C. Cells were collected by centrifugation at 1500 g for 5 min and then freeze-dried after being washed twice with deionized water. Five-milligram sample was weighted and hydrolyzed by H2SO4 at 100 °C for 4 hours. The hydrolysates were centrifuged at 12,000 rpm for 5 min. We removed 100 μL supernatant to another tube and adjusted pH value to 3 with 2 M KOH; then the volume was set to 1 mL with water. One milliliter acetylacetone (7% acetylacetone in 1 M Na2CO3) was added into the tube and incubated for 25 min at 100 °C. The 1.5 mL Ehrlich^’s reagent and 1.5 mL absolute ethyl alcohol were added into the tube for further incubation for 1 hour at 60 °C. The OD520 was determined with BioMet 3S UV-Visible Spectrophotometer (Thermo Scientific^TM, Waltham, MA, USA). N-acetyl-D-glucosamine was used to establish a standard curve for the quantification of chitin levels. All reactions were performed in triplicate.

The test system of another assay is Mycobacterium smegmatis. The assay is described as follows: Growth inhibition of bacteria. As to conditions: at 100 μg/mL. Type of assay: cell-based.
Assay [6] deals with C. albicans. Kind of assay: MIC of CFW in the presence of compounds, checkerboard assay. Type of assay: cell-based, Candida albicans. As for the experimental part:
Fresh cell cultures of WT S. cerevisiae and C. albicans ATCC10231 (OD600 = 0.8) were diluted to 10^4 CFU/mL in YPD medium. The in vitro synergistic and antagonistic effects of compounds were determined using checkerboard assay. MIC endpoints were defined as the lowest concentration of drugs, causing 80% decrease in viability compared to the drug-free control (MIC80). The calculation and interpretation of the fractional inhibitory concentration index (FICI) were carried out by referring to the document standards. FICI = (MIC of drug A in combination) / (MIC of drug A alone) + (MIC of drug B in combination) / (MIC of drug B alone). FIC ≤0.5 was considered as a synergistic effect, and >2 was considered as antagonism.

The next assay concerns WT yeast cells (BY4741). Kind of assay: Growth curve assay (OD600 over time). Type of assay: cell-based, S. cerevisiae. As for the experimental part:
as §1

A value given as a limit tells only on which side of the number the result lay.

As for `COc1cc(OC)cc(C(=O)N(CCn2ccnc2)c2nc3ccc(OC)cc3s2)c1` [IMB-F4, N-(2-(1H-imidazol-1-yl)ethyl)-3,5-dimethoxy-N-(6-methoxybenzo[d]thiazol-2-yl)benzamide], the “chitin level by CFW staining” value in assay [1] was “decreased chitin level”. Besides, in the assay with C. albicans [2], the “growth of C. albicans over time” value is “growth inhibition was observed after incubation for 6 hours”. For the same molecule, the minimal inhibitory concentration (MIC) (as a rule, the smallest concentration in the dilution series that meets the test's criterion for growth inhibition) was more than 100 µg/mL in assay [3] (Saccharomyces cerevisiae, 24 h, read-out: MIC, chs3∆, chs3∆ mutant, YPD, 30 °C, 24 hours, MIC90) and 50 µg/mL in assay [4] (Saccharomyces cerevisiae, 24 h, read-out: MIC, fks1∆). The entries for the “relative chitin content compared to cells treated with DMSO” value in assay [5] (12.5 μg/mL) and in assay [5] (25 μg/mL) were 46.09 ± 8.01% and 27 ± 5.33%, respectively. Moreover, the growth inhibition result with Mycobacterium smegmatis was “did not inhibit the growth”. Further, the “resistance of C. albicans to CFW” value in the assay on C. albicans [6] (25 and 50 μg/mL IMB-F4) is on record as “increased the resistance”. Besides, the “growth of yeast cells over time (OD)” value in the assay on WT yeast cells (BY4741) is “dose-dependent slow growth”.
Consider “N-(2-(diethylamino) ethyl)-N-(7-hydroxy-4-methoxybenzo[d]thiazol -2-yl)-2-oxo-2H-chromene-3-carboxamide [IMB-D10]”, for which, in assay [1], the “chitin level by CFW staining” value is “decreased chitin level”. Further, the “growth of C. albicans over time” value in the assay on C. albicans [2] is “reduced after 4 hours incubation”. For the same molecule, the “MIC, chs3∆” value in assay [3] (chs3∆ mutant, YPD, 30 °C, 24 hours, MIC90) worked out at 100 µg/mL. The “MIC, fks1∆” value in assay [4] (fks1∆ mutant, YPD, 30 °C, 24 hours, MIC90) came to 25 µg/mL. For the same molecule, the “relative chitin content compared to cells treated with DMSO” value in assay [5] (12.5 μg/mL) is given as “did not reduce the chitin level significantly”; in assay [5] (25 μg/mL), 47.61 ± 6.79%. The growth inhibition result in the assay with Mycobacterium smegmatis is on record as “did not inhibit the growth”. Also, the “MIC of CFW in the presence of IMB-D10” value in the assay with C. albicans [6] (C. albicans, IMB-D10 at 50 μg/mL) stood at 100 µg/mL. In addition, the “growth of yeast cells over time (OD)” value in the assay with WT yeast cells (BY4741) is given as “dose-dependent slow growth”.
